{"source": "patent US20090215763A1", "about": "“SUBSTITUTED BENZOXAZINONES” (P&H Therapeutics, Inc., priority 2008, published 2009)", "tested_on": "spontaneously hypertensive rat (SHR)", "test": "In vivo model study: telemetry cardiovascular assessment in SHR rats", "conditions": "male SHR rats, intraperitoneal administration, radiotelemetry, preliminary evaluation", "description": "The objective of this study is to define the magnitude, time course and dose/concentration response relationship of compound 13 antihypertensive effects when administered intraperitoneally (IP) to male SHR rats maintained on standard and low salt diets. In Vivo Phase I: Three male SHR rats, 7-10 weeks of age weighing 150-300 g, will be instrumented with radiotelemetry transmitters. Following an approximate 2-week recovery period, animals will receive a single intraperitoneal dose of test article. Cardiovascular data will be collected for approximately 24 hours following dosing. Cardiovascular data is collected from non-restrained animals implanted with radiotelemetry devices. 1. SHR rats, 7-10 weeks of age weighing 150-300 g, are implanted with radiotelemetry devices. Transmitters are placed subcutaneously in the ventral abdominal region and blood pressure is monitored from the femoral artery. Animals will be allowed to recover at least 10 days prior to data collection. 5. At least 1 hour of baseline is collected from undisturbed animals prior to each dosing. Following test article administration, approximately 24 hours of data is collected from undisturbed animals to assess hemodynamic effects."}
{"smiles": "CCc1nc(N)nc(N)c1-c1ccc2c(c1)N(CCNC(=O)OC)C(=O)[C@](C)(c1cc(F)cc(F)c1)O2", "note": "[Compound 13]", "values": [{"measurement": "blood pressure reduction in SHR (antihypertensive effect)", "value": "blood pressure reduction"}]}
